From patent US5753709A, “N-acyl-2 aryl cyclopropylmethylamine derivatives as melatonergics” (Bristol-Myers Squibb Company, priority 1996, dated 1998) come the findings set out here.

Molecules are shown by their SMILES. A value given as a limit tells only on which side of the number the result lay.

For one assay, the target named is T1, human melatonin receptor (human ML1A) (Homo sapiens, UniProt P48039).
T1 construct: expressed in transfected cells; host or cells: COS-1 cells (transient, pcDNAI, DEAE-dextran); membrane homogenates
T1 sequence (P48039 whole entry): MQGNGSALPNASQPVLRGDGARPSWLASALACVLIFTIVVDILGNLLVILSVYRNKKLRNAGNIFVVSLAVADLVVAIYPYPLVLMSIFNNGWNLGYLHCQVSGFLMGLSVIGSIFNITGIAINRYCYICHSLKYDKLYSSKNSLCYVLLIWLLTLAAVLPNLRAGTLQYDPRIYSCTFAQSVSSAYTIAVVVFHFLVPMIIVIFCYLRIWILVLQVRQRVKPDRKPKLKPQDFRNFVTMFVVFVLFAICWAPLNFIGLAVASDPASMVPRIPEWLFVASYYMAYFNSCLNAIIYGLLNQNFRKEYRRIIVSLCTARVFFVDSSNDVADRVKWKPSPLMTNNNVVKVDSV
In words: Melatonergic binding: displacement of 2-[125I]-iodomelatonin at the human melatonin receptor (human ML1A in COS-1 membranes). Conditions: Table 4; displacement of 2[125I]-Iodomelatonin (100 pM), 37° C., 1 hour. As for the experimental part:
The melatonergic binding of the compounds of Formula I was determined by a modification of the method of Reppert, S. M. et al. (Neuron, Volume 13, pages 1177-1185, 1994). […] The reagents, membranes, and other parameters used in the assay are described below:
(a) 50 mM Tris buffer containing 12.5 mM MgCl2, and 2 mM EDTA (pH 7.4 at 37° C.).
(b) Wash buffer: 20 mM Tris base containing 2 mM MgCl2 (pH 7.4 at room temperature).
(c) 6-Chloromelatonin (10^-5 M final concentration).
(d) 2-[^125 I]-Iodomelatonin (100 pM final concentration). (Source: NEN) Membrane preparation: The cDNA (human ML1A) in pcDNAI was introduced into COS-1 cells by the DEAE-dextran method. Three days later, after media removal, the plates were washed with buffered saline; the cells removed using Hank's balanced salt solution and pelleted. The supernant was discarded and the pellets frozen. For membrane homogenates, the pellets were thawed and resuspended in TME buffer, Tris base, MgCl2, EDTA (pH 7.4 at 37° C.), and supplemented with aprotinin, leupeptin, and phenylmethylsulfonyl fluoride. The cells were homogenized and centrifuged; the resulting pellet resuspended in TME and frozen. At assay, the small aliquot was thawed on ice and resuspended in TME buffer. Incubation: 37° C. for 1 hour. Reaction is terminated by filtration.
By IC50 is commonly meant the concentration at which inhibition is half-maximal. Low readings indicate inhibition by little substance, high ones a need for much substance. In turn, `COc1ccc(F)c([C@@H]2C[C@H]2CNC(=O)C(C)C)c1` (relative stereo) [Example 1, (trans)-N-[[2-(2-Fluoro-5-methoxyphenyl)cyclopropyl]methyl]-2-methylpropanamide] had an IC50 of 40 to 250 nM. With `CCCC(=O)NC[C@@H]1C[C@H]1c1cccc(OC)c1` (relative stereo) [Example 2, (trans)-N-[[2-(3-Methoxyphenyl)cyclopropyl]methyl] butanamide], the IC50 was under 5 nM.

`CCCC(=O)NC[C@@H]1C[C@H]1c1cc(OC)ccc1I` (relative stereo) [Example 4, (trans)-N-[[2-(2-Iodo-5-methoxyphenyl)cyclopropyl]methyl]butanamide] showed an IC50 of under 5 nM. Regarding `CCCC(=O)N(Cc1ccccc1)C[C@@H]1C[C@H]1c1cccc(OC)c1` (relative stereo) [Example 6, (trans)-N-[[2-(3-Methoxyphenyl)cyclopropyl]methyl]-N-(phenylmethyl) butanamide], the IC50 lay in the range of 40 to 250 nM. The same measure, in the same setting: then `CCC(=O)NC[C@@H]1C[C@H]1c1cccc(OC)c1` (relative stereo) [Example 18, (trans)-N-[[2-(3-Methoxyphenyl)cyclopropyl]methyl] propanamide], with under 5 nM; and `COc1cccc([C@@H]2C[C@H]2CNC(C)=O)c1` (relative stereo) [Example 19, (trans)-N-[[2-(3-Methoxyphenyl)cyclopropyl]methyl] acetamide], with 5 to 40 nM; and `COCC(=O)NC[C@@H]1C[C@H]1c1cccc(OC)c1` (relative stereo) [Example 20, (trans)-N-[[2-(3-Methoxyphenyl)cyclopropyl]methyl]-2-methoxyacetamide], with 5 to 40 nM. Turning to `COc1cccc([C@@H]2C[C@H]2CNC(=O)C(C)C)c1` (relative stereo) [Example 21], the IC50 is 5 to 40 nM. Compound `CCCCC(=O)NC[C@@H]1C[C@H]1c1cccc(OC)c1` (relative stereo) [Example 25] showed an IC50 of 40 to 250 nM.

Staying with this assay, now noted: Table 5; displacement of 2[125I]-Iodomelatonin (100 pM), 37° C., 1 hour.
With `CCCC(=O)NC[C@@H]1C[C@H]1c1cccc(O)c1` (relative stereo) [Example 7a, (trans)-N-[[2-(3-Hydroxyphenyl)cyclopropyl]methyl] butanamide], the IC50 was 250 to 600 nM. `C=CCOc1cccc([C@@H]2C[C@H]2CNC(=O)CCC)c1` (relative stereo) [Example 7b, (trans)-N-[[2-[3-(2-Propenyloxy)phenyl]cyclopropyl]methyl] butanamide] displayed an IC50 of 5 to 40 nM. For `CCCC(=O)NC[C@@H]1C[C@H]1c1cccc(OCCO)c1` (relative stereo) [Example 15], the IC50 fell in the range of 40 to 250 nM. In turn, `CCCC(=O)NC[C@@H]1C[C@H]1c1cccc(OCCCCCCc2ccccc2)c1` (relative stereo) [Example 45] gave an IC50 of 40 to 250 nM.

As to `CCCC(=O)NC[C@@H]1C[C@H]1c1cccc(OCCCCCCCc2ccccc2)c1` (relative stereo) [Example 46, (trans)-N-[[2-[3-[(7-Phenylheptyl)oxy]phenyl]cyclopropyl]methyl] butanamide], the IC50 was in the range of 5 to 40 nM.

Regarding `CCCC(=O)NC[C@@H]1C[C@H]1c1cccc(OCCCC#Cc2ccccc2)c1` (relative stereo) [Example 47], the IC50 is 250 to 600 nM. For `CCCC(=O)NC[C@@H]1C[C@H]1c1cccc(OCC)c1` (relative stereo) [Example 48], the IC50 lay within 5 to 40 nM. As for `CCCCCCCOc1cccc([C@@H]2C[C@H]2CNC(=O)CCC)c1` (relative stereo) [Example 53, (trans)-N-[[2-[3-(Heptyloxy)phenyl]cyclopropyl]methyl] butanamide], the IC50 is 40 to 250 nM.

`CCCCCCCCOc1cccc([C@@H]2C[C@H]2CNC(=O)CCC)c1` (relative stereo) [Example 54, (trans)-N-[[2-[(3-Octyloxy)phenyl]cyclopropyl]methyl] butanamide] displayed an IC50 of 5 to 40 nM. As to `CCCCCCCCCOc1cccc([C@@H]2C[C@H]2CNC(=O)CCC)c1` (relative stereo) [Example 55, (trans)-N-[[2-[3-(Nonyloxy)phenyl]cyclopropyl]methyl] butanamide], the IC50 was in the range of 40 to 250 nM.

Compound `CCCCCCCCCCOc1cccc([C@@H]2C[C@H]2CNC(=O)CCC)c1` (relative stereo) [Example 56, (trans)-N-[[2-[(3-Decyloxy)phenyl]cyclopropyl]methyl] butanamide] had an IC50 of 5 to 40 nM. Compound `CCCCCCCCCCCOc1cccc([C@@H]2C[C@H]2CNC(=O)CCC)c1` (relative stereo) [Example 57, (trans)-N-[[2-[(3-Undecyloxy)phenyl]cyclopropyl]methyl] butanamide] came in with an IC50 of 5 to 40 nM. As to `CCCCCCCCCCCCOc1cccc([C@@H]2C[C@H]2CNC(=O)CCC)c1` (relative stereo) [Example 58, (trans)-N-[[2-[(3-Dodecyloxy)phenyl]cyclopropyl]methyl] butanamide], the IC50 lay in the range of 5 to 40 nM. Still for that read-out and setting: under `CCCCCCCCCCCCCCCCOc1cccc([C@@H]2C[C@H]2CNC(=O)CCC)c1` (relative stereo) [Example 59] stands 250 to 600 nM; under `CCCC(=O)NC[C@@H]1C[C@H]1c1cccc(OCCc2ccccc2)c1` (relative stereo) [Example 60, (trans)-N-[[2-[3-[(2-Phenylethyl)oxy]phenyl]cyclopropyl]methyl] butanamide], 5 to 40 nM; under `CCCC(=O)NC[C@@H]1C[C@H]1c1cccc(OCC(C)C)c1` (relative stereo) [Example 61], 250 to 600 nM. Regarding `CCCC(=O)NC[C@@H]1C[C@H]1c1cccc(OCCCc2cccc(OC)c2)c1` (relative stereo) [Example 62, (trans)-N-[[2-[3-[3-(3-Methoxyphenyl)propoxy]phenyl]cyclopropyl]methyl] butanamide], the IC50 lay within 5 to 40 nM. Regarding `CCCC(=O)NC[C@@H]1C[C@H]1c1cccc(OCCCc2ccncc2)c1` (relative stereo) [Example 63], the IC50 lay in the range of 40 to 250 nM.

Take `CCCC(=O)NC[C@@H]1C[C@H]1c1cc(OC(F)(F)F)ccc1Br` (relative stereo) [Example 72]: the IC50 was in the range of 40 to 250 nM.

`CCCC(=O)NC[C@@H]1C[C@H]1c1cccc(Br)c1` (relative stereo) [Example 73, (trans)-N-[[2-(3-Bromophenyl)cycloprop-1-yl]methyl] butanamide] displayed a concentration for half-maximal inhibition (IC50) of 5 to 40 nM. `CCCC(=O)NC[C@@H]1C[C@H]1c1cccc(C)c1` (relative stereo) [Example 75, (trans)-N-[[2-(3-Methylphenyl)cycloprop-1-yl]methyl] butanamide] had an IC50 of 5 to 40 nM. `CC(=O)NC[C@@H]1C[C@H]1c1cccc(C)c1` (relative stereo) [Example 78, (trans)-N-[[2-(3-Methylphenyl)cycloprop-1-yl]methyl] acetamide] registered an IC50 of 40 to 250 nM. Take `CCCC(=O)NC[C@@H]1C[C@H]1c1cccc(Cl)c1` (relative stereo) [Example 80, (trans)-N-[[2-(3-Chlorophenyl)cycloprop-1-yl]methyl] butanamide]: the IC50 is 5 to 40 nM. In turn, `CCCC(=O)NC[C@@H]1C[C@H]1c1cc(F)ccc1F` (relative stereo) [Example 87, (trans)-N-[[2-(2,5-Difluorophenyl)cycloprop-1-yl]methyl] butanamide] came in with an IC50 of 40 to 250 nM. `CCCC(=O)NC[C@@H]1C[C@H]1c1cccc(OCCCF)c1` (relative stereo) [Example 94] came in with an IC50 of 40 to 250 nM. In turn, `CCCC(=O)NC[C@@H]1C[C@H]1c1cccc(OCCCc2ccccc2)c1` (relative stereo) [Example 95, (trans)-N-[[2-[3[(3-Phenylprop-1-yl)oxy]phenyl]cycloprop-1-yl]methyl] butanamide] gave an IC50 of 5 to 40 nM. `CCCC(=O)NC[C@@H]1C[C@H]1c1cccc(OCCCOc2ccccc2)c1` (relative stereo) [Example 96, (trans)-N-[[2-[3[(3-Phenoxyprop-1-yl)oxy]phenyl]cycloprop-1-yl]methyl] butanamide] came in with an IC50 of 5 to 40 nM. As for `CCCC(=O)NC[C@@H]1C[C@H]1c1cccc(OCCCn2cccc2)c1` (relative stereo) [Example 98], the IC50 was in the range of 5 to 40 nM. Same read-out and setting: then `CCCC(=O)NC[C@@H]1C[C@H]1c1cccc(OCC=C(C)CCC=C(C)C)c1` (relative stereo) [Example 99, (trans)-N-[[2-[3[(3-Dimethylocta-2,6-dien-1-yl)oxy]phenyl]cycloprop-1-yl]methyl] butanamide], with 5 to 40 nM. `CCCC(=O)NC[C@@H]1C[C@H]1c1cccc(OCCCCC(C)C)c1` (relative stereo) [Example 100, (trans)-N-[[2-[3-(5-Methylhexyloxy)phenyl]cycloprop-1-yl]methyl] butanamide] returned an IC50 of 5 to 40 nM. The same measure, in the same setting: under `CCCC(=O)NC[C@@H]1C[C@H]1c1cccc(OCC=C(C)CCC=C(C)CCC=C(C)C)c1` (relative stereo) [Example 103, (trans)-N-[[2-[3-[(3-,7,11-Trimethyldodeca-2,6,10-trien-1-yl)oxy]phenyl]cycloprop-1-yl]methyl] butanamide] stands under 5 nM; under `C=CCCCOc1cccc([C@@H]2C[C@H]2CNC(=O)CCC)c1` (relative stereo) [Example 105], 5 to 40 nM.
